The values that follow come from patent publication US7125986B2, “Penicillanic acid derivative compounds and methods of making” (Southern Methodist University Foundation for Research, priority 1997, dated 2006).

The target of experiment [1] is β-lactamase of Enterobacter cloacae P99 (Enterobacter cloacae, UniProt P05364). The experiment in a line: β-lactamase inhibition, nitrocefin hydrolysis (P99). The experiment is classed as biochemical. The note with it: for β-lactamase inhibiting activity greater than compound 9 by a factor, P99: factor relative to compound 9. As to the method: (§1) The IC50 value of each compound was determined as follows. Following a 10 minute incubation of a dilute solution of enzyme (2.56 nM) and inhibitor (<0.64 μM), a 50 μL aliquot of the incubation mixture was further diluted into 1 mL nitrocefin (a substrate) solution, and the rate of hydrolysis was measured during a 1 minute period by monitoring the absorbance of nitrocefin as a function of time.

A further experiment concerns the target TEM-1 β-lactamase (Escherichia coli, UniProt P62593). In words: β-lactamase inhibition, nitrocefin hydrolysis (TEM-1). Format: biochemical. As to the method:
as §1

Where [2] appears, read: 10 minute incubation of enzyme (2.56 nM) and inhibitor, nitrocefin substrate, read-out: IC50 (uM) Ent. cloacae P99.
The mark [3] stands for this setting: 10 minute incubation of enzyme (2.56 nM) and inhibitor, nitrocefin substrate, read-out: IC50 (uM) TEM-1.

Counter-ions that a name gives are not always drawn. Like-named read-outs stand apart in the source and are kept apart here.

Sequence of TEM-1 β-lactamase (P62593 24-286 limits assumed): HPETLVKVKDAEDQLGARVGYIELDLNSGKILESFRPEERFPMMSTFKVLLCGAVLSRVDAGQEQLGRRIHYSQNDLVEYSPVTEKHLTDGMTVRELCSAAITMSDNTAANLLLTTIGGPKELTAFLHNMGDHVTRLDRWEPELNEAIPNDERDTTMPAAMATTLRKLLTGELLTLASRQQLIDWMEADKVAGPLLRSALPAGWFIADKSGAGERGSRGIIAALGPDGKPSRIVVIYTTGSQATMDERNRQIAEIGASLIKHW
Sequence of β-lactamase of Enterobacter cloacae P99 (P05364 21-381): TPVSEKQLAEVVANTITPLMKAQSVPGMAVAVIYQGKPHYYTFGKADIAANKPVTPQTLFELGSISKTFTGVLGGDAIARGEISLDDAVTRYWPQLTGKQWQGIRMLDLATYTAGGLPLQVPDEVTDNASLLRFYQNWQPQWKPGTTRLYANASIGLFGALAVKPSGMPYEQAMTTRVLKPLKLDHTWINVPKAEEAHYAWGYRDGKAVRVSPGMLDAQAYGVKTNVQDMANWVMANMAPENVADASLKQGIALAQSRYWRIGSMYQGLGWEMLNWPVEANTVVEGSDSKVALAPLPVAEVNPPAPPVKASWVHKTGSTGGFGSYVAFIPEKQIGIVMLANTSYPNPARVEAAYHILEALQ

Consider `COC(=O)C=C1C(=O)N2C(C(=O)O)C(C)(COC(C)=O)S(=O)(=O)C12` (stereo not drawn) [Compound 8e, Sodium salt of 2β-(acetoxymethyl)-6-[(Z)-(methoxycarbonyl)methylene]-penicillinic acid 1,1 dioxide], for which, in experiment [1] (setting [2]), the IC50 (commonly the point on the concentration scale where inhibition reaches its midpoint) amounted to 2.66 µM.

Turning to `C[C@]1(C=CC#N)[C@H](C(=O)O)N2C(=O)/C(=C/C(=O)O)[C@H]2S1(=O)=O` (mixture of isomers) [Compound 17, Disodium Salt of 2β-[(E/Z)-(cyanoethenyl)]-6-[(Z)-carboxymethylene]-penicillinate 1,1-dioxide], in experiment [1] (setting [2]), the half-maximal inhibitory concentration (IC50) is 6.76 µM.

As to `C[C@]1(COC(=O)Cc2ccccc2)[C@H](C(=O)O)N2C(=O)/C(=C/C(=O)O)[C@H]2S1(=O)=O` [Compound 8d, Disodium salt of 2β-(phenylacetoxymethyl)-6-[(Z)-carboxymethylene]-penicillinate 1,1-dioxide], the IC50 in experiment [1] is 0.54 µM; against TEM-1 β-lactamase it was 0.015 µM.

`CC(=O)OCC1(C)C(C(=O)O)N2C(=O)C(=Cc3ccccn3)C2S1(=O)=O` (stereo not drawn) [Compound 29a, Sodium 2β-(acetoxymethyl)-1,1-dioxo-6-[(Z)-2′-pyridylmethylene]penicillinate]: the “β-lactamase inhibiting activity against P99 (in words)” value in experiment [1] is “potent”. Also, the IC50 was 0.062 µM in experiment [1] (setting [2]) and 0.004 µM on TEM-1 β-lactamase (setting [3]). The “β-lactamase inhibiting activity against TEM-1 (in words)” value on TEM-1 β-lactamase is listed as “potent”.

In the case of `CC(C)(C)OC(=O)/C=C1/C(=O)N2[C@@H](C(=O)O)[C@](C)(CCl)S(=O)(=O)[C@H]12` [Compound 12a, Sodium salt of 2β-(chloromethyl)-6-[(Z)-(t-butoxycarbonyl)methylene]-penicillinic acid 1,1 dioxide], the IC50 in experiment [1] (setting [2]) was 7.62 µM; at TEM-1 β-lactamase (setting [3]), 39 µM.

Regarding `CC1(COC(=O)CCl)C(C(=O)O)N2C(=O)C(=CC(=O)O)C2S1(=O)=O` (stereo not drawn) [Compound 8b, Disodium salt of 2β-(chloroacetoxymethyl)-6-[(Z)-carboxymethylene]-penicillinate 1,1-dioxide], the IC50 at TEM-1 β-lactamase (setting [3]) is 0.19 µM.

For `Cn1nnnc1SCC(=O)OCC1(C)C(C(=O)O)N2C(=O)C(=CC(=O)O)C2S1(=O)=O` (stereo not drawn) [Compound 8g, Disodium salt of 2β-[[(1-methyl-1H-tetrazol-5-yl)thio]acetoxymethyl]-6-[(Z)-carboxymethylene]penicillinate 1,1-dioxide], the IC50 in experiment [1] (setting [2]) was determined as 0.64 µM; at TEM-1 β-lactamase (setting [3]) it was 0.23 µM.

In the case of `COC(=O)/C=C1/C(=O)N2[C@@H](C(=O)O)[C@](C)(CCl)S(=O)(=O)[C@H]12` [Compound 12b, Sodium salt of 2β-(chloromethyl)-6-[(Z)-(methoxycarbonyl)methylene]-penicillanic acid 1,1 dioxide], the IC50 in experiment [1] (setting [2]) was 6.96 µM.

Take `COC(=O)/C=C1/C(=O)N2[C@@H](C(=O)O)[C@](C)(COC(=O)CSc3nnnn3C)S(=O)(=O)[C@H]12` [Compound 8h, Sodium salt of 2β-[[(1-methyl-1H-tetrazol-5-yl)thio]acetoxymethyl]-6-[(Z)-(methoxycarbonyl)methylene]penicillinate 1,1-dioxide]: the IC50 in experiment [1] (setting [2]) amounted to 3.69 µM.

Turning to `CC(=O)OC[C@@]1(C)[C@H](C(=O)O)N2C(=O)/C(=C/C(=O)O)[C@H]2S1(=O)=O` [Compound 8a, Disodium salt of 2β-(acetoxymethyl)-6-[(Z)-carboxymethylene]-penicillinic acid-1,1-dioxide], the figures for the IC50 (in experiment [1] (setting [2]); at TEM-1 β-lactamase (setting [3])) were 0.383 µM and 0.213 µM, respectively. For the same compound, in experiment [1], the “β-lactamase inhibiting activity greater than compound 9 by a factor, P99” value is ~2.

With `C[C@]1(COC(=O)Cc2ccccc2)[C@H](C(=O)O)N2C(=O)/C(=C/c3ccccn3)[C@H]2S1(=O)=O` [Compound 29b, Sodium 1,1-Dioxo-2β-(phenylacetoxy)methyl-6-[(Z)-2′-pyridylmethylene]penicillinate], the “β-lactamase inhibiting activity against P99 (in words)” value in experiment [1] is reported as “potent”. On TEM-1 β-lactamase, the IC50 is 0.39 µM and the “β-lactamase inhibiting activity against TEM-1 (in words)” value is given as “potent”.

Turning to `CC1(CCl)C(C(=O)O)N2C(=O)/C(=C/C(=O)O)C2S1(=O)=O` (stereo not drawn) [Compound 12c, Disodium salt of 2β-(chloromethyl)-6-[(Z)-carboxymethylene]penicillinate 1,1-dioxide], the IC50 is 105 µM in experiment [1] (setting [2]) and 120 µM at TEM-1 β-lactamase (setting [3]).

For the compound `C[C@]1(COC=O)[C@H](C(=O)O)N2C(=O)/C(=C/C(=O)O)[C@H]2S1(=O)=O` [Compound 8c, Disodium salt of 2β-(formyloxymethyl)-6-[(Z)-carboxymethylene]-penicillinate 1,1-dioxide], in experiment [1] (setting [2]), the IC50 was determined as 0.3 µM. Moreover, the “β-lactamase inhibiting activity greater than compound 9 by a factor, P99” value in experiment [1] is on record as ~2.

For the compound `CC1(COC(=O)Cc2ccc(O)c(O)c2)C(C(=O)O)N2C(=O)C(=CC(=O)O)C2S1(=O)=O` (stereo not drawn) [Compound 8i, Disodium Salt of 2β-[(3′,4′-Dihydroxyphenyl)acetoxy]methyl-6-[(Z)-carboxymethylene]-1,1-dioxopenicillinate], the IC50 in experiment [1] (setting [2]) turned out to be 0.37 µM.
